Molecular target: Tyrosine-protein kinase JAK2 (Homo sapiens, UniProt O60674)
Assay: Inhibition Assay: Compounds of Formula I were screened for their ability to inhibit Jak2 using the general enzyme inhibition assay method, in which the assay mixture contained 500 μM ATP, 10 μM Omnia Y7 peptide (Catalog # IVGN KNZ3071C, Invitrogen Corporation, Carlsbad, Calif.) and 4 nM Jak2 in a total volume of 20 μL. […] (catalog # IVGN PV4210).

Tyrosine-protein kinase JAK2, sequence (O60674 whole entry): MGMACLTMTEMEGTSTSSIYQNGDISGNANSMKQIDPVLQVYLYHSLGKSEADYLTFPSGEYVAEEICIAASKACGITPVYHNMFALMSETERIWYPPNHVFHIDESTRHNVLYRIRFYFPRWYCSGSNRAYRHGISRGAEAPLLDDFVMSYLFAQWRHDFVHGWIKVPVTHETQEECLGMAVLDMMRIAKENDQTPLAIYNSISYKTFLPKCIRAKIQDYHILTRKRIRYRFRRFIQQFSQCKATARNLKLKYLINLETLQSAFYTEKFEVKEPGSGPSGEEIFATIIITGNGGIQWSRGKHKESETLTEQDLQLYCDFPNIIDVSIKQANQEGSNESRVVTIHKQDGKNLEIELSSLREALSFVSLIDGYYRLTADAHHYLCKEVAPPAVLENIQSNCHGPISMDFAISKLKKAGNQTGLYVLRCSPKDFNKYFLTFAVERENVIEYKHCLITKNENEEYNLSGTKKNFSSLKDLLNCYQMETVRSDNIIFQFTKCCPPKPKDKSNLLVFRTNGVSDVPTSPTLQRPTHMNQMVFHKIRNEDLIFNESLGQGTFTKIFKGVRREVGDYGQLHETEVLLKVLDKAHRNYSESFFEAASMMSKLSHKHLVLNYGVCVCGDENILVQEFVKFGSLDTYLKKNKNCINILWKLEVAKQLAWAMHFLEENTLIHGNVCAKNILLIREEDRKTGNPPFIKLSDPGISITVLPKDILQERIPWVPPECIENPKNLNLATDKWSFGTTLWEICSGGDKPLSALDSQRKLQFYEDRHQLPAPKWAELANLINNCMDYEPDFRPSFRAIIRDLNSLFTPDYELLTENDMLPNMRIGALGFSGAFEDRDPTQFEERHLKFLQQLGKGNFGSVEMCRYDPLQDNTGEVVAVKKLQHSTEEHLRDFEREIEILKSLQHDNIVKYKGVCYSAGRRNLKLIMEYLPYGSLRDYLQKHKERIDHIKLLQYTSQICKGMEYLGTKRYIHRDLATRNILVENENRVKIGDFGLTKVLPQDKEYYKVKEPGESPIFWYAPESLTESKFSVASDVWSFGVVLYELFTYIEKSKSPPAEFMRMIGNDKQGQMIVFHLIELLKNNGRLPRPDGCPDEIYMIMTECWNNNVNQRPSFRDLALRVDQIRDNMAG

Row | SMILES | IC50 [nM]
1 | COCCOc1ccc(F)cc1[C@H]1CCCN1c1ccn2ncc(C(=O)NC3CC3)c2n1 | 472
2 | COc1ncc(F)cc1[C@H]1CCCN1c1ccn2ncc(C(=O)NCCCNC(=O)OC(C)(C)C)c2n1 | > 1000

From ChEMBL document CHEMBL3638907, “Substituted pyrazolo[1,5-a]pyrimidine compounds as Trk kinase inhibitors” (2014)
